Measurements as given in PubChem BioAssay (NCI).
Where “and” joins values, the source holds several entries; their conditions need not be identical. Identical values can stand only once.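 48-hour exposure; five concentrations; linearly interpolated endpoints. The concentration for 50% growth inhibition is given as GI50. TGI is the concentration that stops growth completely.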

How the values were obtained:
Assay in all cases: growth of human tumour cells (NCI), 48 h
[1] = test system: U251 CNS
[2] = test system: HCC-2998 colon
[3] = test system: CCRF-CEM leukemia
[4] = test system: SN12C renal
[5] = test system: SNB-75 CNS
[6] = test system: MCF7 breast
[7] = test system: HCT-15 colon
[8] = test system: RPMI-8226 leukemia
[9] = test system: K-562 leukemia
[10] = test system: 786-0 renal
[11] = test system: KM12 colon
[12] = test system: SK-MEL-28 melanoma
[13] = test system: UO-31 renal
[14] = test system: NCI-H522 lung
[15] = test system: M14 melanoma
[16] = test system: COLO 205 colon
[17] = test system: HOP-92 NSCLC
[18] = test system: NCI/ADR-RES ovarian
[19] = test system: OVCAR-5 ovarian
[20] = test system: HS 578T breast
[21] = test system: IGROV1 ovarian
[22] = test system: NCI-H23 lung
[23] = test system: PC-3 prostate
[24] = test system: SF-539 CNS
[25] = test system: SNB-19 CNS
[26] = test system: OVCAR-3 ovarian
[27] = test system: OVCAR-8 ovarian
[28] = test system: A498 renal
[29] = test system: HL-60(TB) leukemia
[30] = test system: SW-620 colon
[31] = test system: SK-OV-3 ovarian
[32] = test system: SF-295 CNS
[33] = test system: ACHN renal
[34] = test system: SK-MEL-5 melanoma
[35] = test system: HT29 colon
[36] = test system: HOP-62 NSCLC
[37] = test system: NCI-H460 lung
[38] = test system: DU-145 prostate
[39] = test system: LOX IMVI melanoma
[40] = test system: BT-549 breast
[41] = test system: MDA-MB-435
[42] = test system: A549 NSCLC
[43] = test system: TK-10 renal
[44] = test system: CAKI-1 renal
[45] = test system: T-47D breast
[46] = test system: SR leukemia
[47] = test system: MDA-MB-231 breast
[48] = test system: UACC-257 melanoma
[49] = test system: UACC-62 melanoma
[50] = test system: OVCAR-4 ovarian
[51] = test system: SK-MEL-2 melanoma
[52] = test system: NCI-H226 lung
[53] = test system: HCT-116 colon
[54] = test system: SF-268 CNS
[55] = test system: EKVX NSCLC
[56] = test system: MOLT-4 leukemia
[57] = test system: RXF 393 renal
[58] = test system: MALME-3M melanoma

SMILES: O=C(O)Cc1ccc(Oc2nc3ccccc3nc2C(=O)O)cc1
- TGI [1]: > 100 µM
- TGI [2]: > 100 µM
- TGI [3]: > 100 µM
- TGI [4]: > 100 µM
- TGI [5]: > 100 µM
- TGI [6]: > 100 µM
- TGI [7]: > 100 µM
- TGI [8]: > 100 µM
- TGI [9]: > 100 µM
- TGI [10]: > 100 µM
- TGI [11]: > 100 µM
- TGI [12]: > 100 µM
- TGI [13]: > 100 µM
- TGI [14]: > 100 µM
- TGI [15]: > 100 µM
- TGI [16]: > 100 µM
- TGI [17]: > 100 µM
- TGI [18]: > 100 µM
- TGI [19]: > 100 µM
- TGI [20]: > 100 µM
- TGI [21]: > 100 µM
- TGI [22]: > 100 µM
- TGI [23]: > 100 µM
- TGI [24]: > 100 µM
- TGI [25]: > 100 µM
- TGI [26]: > 100 µM
- TGI [27]: > 100 µM
- TGI [28]: > 100 µM
- TGI [29]: > 100 µM
- TGI [30]: > 100 µM
- TGI [31]: > 100 µM
- TGI [32]: > 100 µM
- TGI [33]: > 100 µM
- TGI [34]: > 100 µM
- TGI [35]: > 100 µM
- TGI [36]: > 100 µM
- TGI [37]: > 100 µM
- TGI [38]: > 100 µM
- TGI [39]: > 100 µM
- TGI [40]: > 100 µM
- TGI [41]: > 100 µM
- TGI [42]: > 100 µM
- TGI [43]: > 100 µM
- TGI [44]: > 100 µM
- TGI [45]: > 100 µM
- TGI [46]: > 100 µM
- TGI [47]: > 100 µM
- TGI [48]: > 100 µM
- TGI [49]: > 100 µM
- TGI [50]: > 100 µM
- TGI [51]: > 100 µM
- TGI [52]: > 100 µM
- TGI [53]: > 100 µM
- TGI [54]: > 100 µM
- TGI [55]: > 100 µM

SMILES: COc1cc(Nc2ncc(F)c(Nc3ccc4c(n3)NC(=O)C(C)(C)O4)n2)cc(OC)c1OC
- GI50 [1]: > 10 µM
- TGI [1]: > 10 µM
- GI50 [2]: > 100 µM
- TGI [2]: > 100 µM
- GI50 [3]: 6.32 µM
- TGI [3]: > 10 µM
- GI50 [4]: 0.667 µM and 2.86 µM
- TGI [4]: > 100 µM
- GI50 [5]: 0.385 µM
- TGI [5]: > 10 µM
- GI50 [6]: 3.93 µM
- TGI [6]: > 10 µM
- GI50 [7]: 4.75 µM
- TGI [7]: > 10 µM
- GI50 [8]: > 100 µM
- TGI [8]: > 100 µM
- GI50 [9]: > 100 µM
- TGI [9]: > 100 µM
- GI50 [10]: 1.03 µM and 1.27 µM
- TGI [10]: > 100 µM
- GI50 [56]: 3.38 µM and 6.7 µM
- TGI [56]: > 100 µM
- GI50 [11]: 0.366 µM and 0.527 µM
- TGI [11]: > 100 µM
- GI50 [12]: > 100 µM
- TGI [12]: > 100 µM
- GI50 [13]: 0.679 µM
- TGI [13]: > 10 µM
- GI50 [14]: 1.94 µM and 1.43 µM
- TGI [14]: > 100 µM
- GI50 [15]: > 100 µM
- TGI [15]: > 100 µM
- GI50 [16]: 2.4 µM and 2.55 µM
- TGI [16]: > 100 µM
- GI50 [17]: 0.302 µM
- TGI [17]: 4.85 µM
- GI50 [18]: > 10 µM
- TGI [18]: > 10 µM
- GI50 [19]: 3.85 µM
- TGI [19]: > 10 µM
- GI50 [20]: 0.218 µM and 0.787 µM
- GI50 [21]: 0.43 µM
- TGI [21]: > 10 µM
- GI50 [22]: 6.29 µM
- TGI [22]: > 10 µM
- GI50 [23]: > 10 µM
- TGI [23]: > 10 µM
- GI50 [24]: 0.916 µM
- TGI [24]: 9.38 µM
- GI50 [25]: > 100 µM
- TGI [25]: > 100 µM
- GI50 [26]: > 100 µM
- TGI [26]: > 100 µM
- GI50 [27]: > 100 µM
- TGI [27]: > 100 µM
- GI50 [28]: 0.148 µM and 0.352 µM
- TGI [28]: 0.547 µM and 2.15 µM
- GI50 [29]: > 10 µM
- TGI [29]: > 10 µM
- GI50 [30]: > 10 µM
- TGI [30]: > 10 µM
- TGI [31]: > 100 µM
- GI50 [57]: 0.418 µM
- TGI [57]: 5.89 µM
- GI50 [32]: 4.4 µM
- TGI [32]: > 10 µM
- GI50 [33]: 0.791 µM and 1.36 µM
- TGI [33]: > 100 µM
- GI50 [34]: > 100 µM
- TGI [34]: > 100 µM
- GI50 [35]: 1.32 µM and 2.01 µM
- TGI [35]: > 100 µM
- GI50 [36]: 1.38 µM and 4.74 µM
- TGI [36]: > 100 µM
- GI50 [37]: > 100 µM
- TGI [37]: > 100 µM
- GI50 [38]: > 10 µM
- TGI [38]: > 10 µM
- GI50 [39]: 1.57 µM
- TGI [39]: > 10 µM
- GI50 [40]: 3.24 µM
- TGI [40]: > 10 µM
- GI50 [41]: > 10 µM
- TGI [41]: > 10 µM
- GI50 [42]: 4.75 µM
- TGI [42]: > 10 µM
- GI50 [43]: 0.677 µM
- TGI [43]: > 10 µM
- GI50 [44]: 0.618 µM
- TGI [44]: > 10 µM
- TGI [45]: > 100 µM
- GI50 [46]: 2.71 µM and > 10 µM
- TGI [46]: > 100 µM
- GI50 [58]: > 100 µM
- TGI [58]: > 100 µM
- GI50 [47]: 3.09 µM
- TGI [47]: > 10 µM
- GI50 [48]: > 10 µM
- TGI [48]: > 10 µM
- GI50 [50]: > 100 µM
- TGI [50]: > 100 µM
- GI50 [51]: > 100 µM
- TGI [51]: > 100 µM
- GI50 [52]: 0.4 µM and 0.393 µM
- TGI [52]: > 100 µM
- GI50 [53]: > 100 µM
- TGI [53]: > 100 µM
- GI50 [54]: 3.6 µM
- TGI [54]: > 10 µM
- GI50 [55]: 4.3 µM
- TGI [55]: > 10 µM
